Results on six molecules are retold here after article PMC4858680, “A platinum-based hybrid drug design approach to circumvent acquired resistance to molecular targeted tyrosine kinase inhibitors” (Scientific Reports, 2016).

Where two headings read alike, the source gives them in different places.

In assay [1] the test system is FLT3(ITD). The settings on record: 10 μM.
Assay [2] has as its target EPHA5 (Homo sapiens, UniProt P54756). Nature of the assay: biochemical. The settings on record: read-out: Percent control.
In assay [3] the target is T1, ERBB2 (Homo sapiens, UniProt P04626).
T1 construct: purchased DiscoveRx KINOMEscan
T1 sequence (P04626 23-1255): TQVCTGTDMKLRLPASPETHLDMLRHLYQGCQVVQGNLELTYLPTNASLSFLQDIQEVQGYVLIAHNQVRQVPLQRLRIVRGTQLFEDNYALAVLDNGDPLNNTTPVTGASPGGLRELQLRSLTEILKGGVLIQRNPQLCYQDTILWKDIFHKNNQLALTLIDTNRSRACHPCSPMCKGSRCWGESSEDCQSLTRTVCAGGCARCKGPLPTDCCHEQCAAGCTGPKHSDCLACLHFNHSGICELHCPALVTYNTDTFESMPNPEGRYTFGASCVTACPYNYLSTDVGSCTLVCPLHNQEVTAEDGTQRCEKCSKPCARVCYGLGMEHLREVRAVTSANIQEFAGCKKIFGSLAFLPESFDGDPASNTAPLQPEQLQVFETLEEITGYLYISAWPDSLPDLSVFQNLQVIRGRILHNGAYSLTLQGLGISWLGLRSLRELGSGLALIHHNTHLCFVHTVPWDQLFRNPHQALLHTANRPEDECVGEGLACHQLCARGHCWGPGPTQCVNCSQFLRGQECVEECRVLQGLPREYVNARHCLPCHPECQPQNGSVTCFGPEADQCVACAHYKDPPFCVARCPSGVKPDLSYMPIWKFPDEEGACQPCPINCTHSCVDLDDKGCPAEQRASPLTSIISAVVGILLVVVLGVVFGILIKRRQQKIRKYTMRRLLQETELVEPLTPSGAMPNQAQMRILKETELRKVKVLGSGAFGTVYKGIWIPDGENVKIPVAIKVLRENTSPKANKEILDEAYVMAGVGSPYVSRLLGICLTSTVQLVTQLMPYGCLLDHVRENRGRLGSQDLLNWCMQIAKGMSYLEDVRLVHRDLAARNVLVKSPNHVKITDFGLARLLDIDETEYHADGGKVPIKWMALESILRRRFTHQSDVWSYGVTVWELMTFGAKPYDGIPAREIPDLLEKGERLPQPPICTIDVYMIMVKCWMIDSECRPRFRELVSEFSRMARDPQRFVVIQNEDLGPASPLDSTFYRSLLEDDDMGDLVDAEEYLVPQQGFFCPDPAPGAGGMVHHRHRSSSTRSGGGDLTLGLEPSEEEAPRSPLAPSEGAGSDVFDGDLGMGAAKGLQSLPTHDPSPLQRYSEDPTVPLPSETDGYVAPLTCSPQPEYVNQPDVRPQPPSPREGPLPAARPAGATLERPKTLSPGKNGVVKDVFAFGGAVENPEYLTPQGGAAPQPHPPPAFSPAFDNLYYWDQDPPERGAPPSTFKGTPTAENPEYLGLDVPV
Type of assay: binding. Conditions: for remaining binding at 10 µM: read-out: Percent control.

Assay [4] concerns the target T2, EPHB2 (Homo sapiens, UniProt P29323).
T2 sequence (P29323 19-1055): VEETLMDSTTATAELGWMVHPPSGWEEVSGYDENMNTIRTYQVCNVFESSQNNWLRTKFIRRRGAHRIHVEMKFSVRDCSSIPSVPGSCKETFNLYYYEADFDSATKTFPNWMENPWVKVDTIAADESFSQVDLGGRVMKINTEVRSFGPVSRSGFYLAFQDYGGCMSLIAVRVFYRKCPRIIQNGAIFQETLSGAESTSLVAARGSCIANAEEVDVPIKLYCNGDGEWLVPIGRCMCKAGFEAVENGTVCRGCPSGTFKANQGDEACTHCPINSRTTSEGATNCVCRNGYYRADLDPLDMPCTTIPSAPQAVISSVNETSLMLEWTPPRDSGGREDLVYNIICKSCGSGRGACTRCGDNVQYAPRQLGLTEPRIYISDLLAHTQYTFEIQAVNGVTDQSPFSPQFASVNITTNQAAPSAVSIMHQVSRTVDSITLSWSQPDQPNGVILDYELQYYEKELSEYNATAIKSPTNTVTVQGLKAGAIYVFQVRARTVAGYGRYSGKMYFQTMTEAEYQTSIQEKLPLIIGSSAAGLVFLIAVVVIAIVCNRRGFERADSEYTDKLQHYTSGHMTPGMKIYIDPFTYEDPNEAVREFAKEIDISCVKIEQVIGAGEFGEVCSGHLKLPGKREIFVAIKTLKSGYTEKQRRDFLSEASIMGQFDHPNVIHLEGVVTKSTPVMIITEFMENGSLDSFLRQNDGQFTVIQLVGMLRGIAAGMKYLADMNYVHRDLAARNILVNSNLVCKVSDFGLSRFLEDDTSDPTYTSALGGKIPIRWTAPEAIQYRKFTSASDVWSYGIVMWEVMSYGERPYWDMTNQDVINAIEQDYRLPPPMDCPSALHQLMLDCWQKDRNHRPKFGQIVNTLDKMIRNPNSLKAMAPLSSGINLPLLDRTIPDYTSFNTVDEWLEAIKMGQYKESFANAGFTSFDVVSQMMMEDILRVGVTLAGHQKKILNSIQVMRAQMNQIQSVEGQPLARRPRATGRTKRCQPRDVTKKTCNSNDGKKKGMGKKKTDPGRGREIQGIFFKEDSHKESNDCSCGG
Put plainly: biochemical. The settings on record: read-out: Percent control.

In assay [5] the target is RET(V804TL) (Homo sapiens, UniProt P07949, V804L). Conditions: 10 μM.
Chain of RET(V804TL) (P07949 29-1114 V804L): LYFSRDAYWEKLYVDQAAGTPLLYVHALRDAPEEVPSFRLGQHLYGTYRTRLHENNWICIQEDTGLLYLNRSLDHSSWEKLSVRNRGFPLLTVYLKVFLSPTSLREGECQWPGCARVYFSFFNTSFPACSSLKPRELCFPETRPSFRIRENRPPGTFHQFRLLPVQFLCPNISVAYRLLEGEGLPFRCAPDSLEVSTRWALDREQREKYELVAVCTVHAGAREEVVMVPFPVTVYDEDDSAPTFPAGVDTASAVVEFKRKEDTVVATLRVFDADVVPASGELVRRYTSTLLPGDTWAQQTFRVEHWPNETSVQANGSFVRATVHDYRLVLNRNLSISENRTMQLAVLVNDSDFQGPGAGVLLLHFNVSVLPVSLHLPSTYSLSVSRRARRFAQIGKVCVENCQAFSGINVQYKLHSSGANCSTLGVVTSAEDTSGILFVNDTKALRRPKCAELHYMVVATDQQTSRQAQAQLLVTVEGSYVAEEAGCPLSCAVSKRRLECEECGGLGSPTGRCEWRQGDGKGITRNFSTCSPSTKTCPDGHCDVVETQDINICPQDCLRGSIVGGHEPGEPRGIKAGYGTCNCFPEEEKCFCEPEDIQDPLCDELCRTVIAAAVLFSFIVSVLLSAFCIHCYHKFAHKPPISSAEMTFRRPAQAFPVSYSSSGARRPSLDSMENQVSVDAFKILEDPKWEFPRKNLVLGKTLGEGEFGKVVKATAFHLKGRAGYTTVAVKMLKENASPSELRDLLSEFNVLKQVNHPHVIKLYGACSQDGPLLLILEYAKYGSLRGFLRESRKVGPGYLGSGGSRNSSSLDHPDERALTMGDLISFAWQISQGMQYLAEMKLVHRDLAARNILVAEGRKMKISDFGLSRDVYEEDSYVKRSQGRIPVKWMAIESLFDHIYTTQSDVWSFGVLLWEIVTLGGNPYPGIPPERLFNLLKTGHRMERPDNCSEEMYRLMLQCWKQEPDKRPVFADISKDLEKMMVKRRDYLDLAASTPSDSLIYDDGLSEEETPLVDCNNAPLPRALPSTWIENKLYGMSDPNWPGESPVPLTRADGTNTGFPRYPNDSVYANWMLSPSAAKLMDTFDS
The target of assay [6] is CSK (Homo sapiens, UniProt P41240). Conditions: 10 μM.
Assay [7] has as its target T3, HCK (Homo sapiens, UniProt P08631).
T3 construct: purchased DiscoveRx KINOMEscan
In kind it is binding. Conditions: 10 μM.

The target in assay [8] is KIT (Homo sapiens, UniProt P10721). Conditions: 10 μM.
Chain of KIT (P10721 26-976): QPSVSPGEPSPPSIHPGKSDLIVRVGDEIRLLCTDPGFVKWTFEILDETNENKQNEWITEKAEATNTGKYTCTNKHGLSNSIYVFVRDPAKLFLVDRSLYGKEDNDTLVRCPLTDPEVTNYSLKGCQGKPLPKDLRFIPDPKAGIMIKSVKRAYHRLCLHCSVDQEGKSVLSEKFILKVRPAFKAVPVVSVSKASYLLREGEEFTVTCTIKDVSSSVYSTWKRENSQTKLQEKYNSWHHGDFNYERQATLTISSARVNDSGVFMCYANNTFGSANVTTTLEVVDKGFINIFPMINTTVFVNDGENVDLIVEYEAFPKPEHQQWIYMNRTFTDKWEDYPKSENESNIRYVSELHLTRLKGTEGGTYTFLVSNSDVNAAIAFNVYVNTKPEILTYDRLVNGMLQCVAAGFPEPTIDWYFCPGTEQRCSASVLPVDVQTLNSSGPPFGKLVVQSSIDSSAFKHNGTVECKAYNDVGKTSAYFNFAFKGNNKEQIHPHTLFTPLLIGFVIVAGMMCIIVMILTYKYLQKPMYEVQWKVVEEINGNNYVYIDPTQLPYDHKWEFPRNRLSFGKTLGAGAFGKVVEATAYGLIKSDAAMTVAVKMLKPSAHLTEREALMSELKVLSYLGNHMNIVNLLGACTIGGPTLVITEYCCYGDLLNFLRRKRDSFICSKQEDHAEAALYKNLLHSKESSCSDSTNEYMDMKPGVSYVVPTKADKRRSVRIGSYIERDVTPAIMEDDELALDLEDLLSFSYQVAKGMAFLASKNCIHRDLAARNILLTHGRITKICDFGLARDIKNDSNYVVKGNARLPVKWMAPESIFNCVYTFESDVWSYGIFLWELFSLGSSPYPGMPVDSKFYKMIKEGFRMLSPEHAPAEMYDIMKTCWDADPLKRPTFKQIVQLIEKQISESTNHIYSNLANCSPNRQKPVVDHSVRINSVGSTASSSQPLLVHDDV
The target of assay [9] is KIT(A829P) (Homo sapiens, UniProt P10721, A829P). The settings on record: 10 μM.
The target of assay [10] is T4, EPHA4 (Homo sapiens, UniProt P54764).
T4 construct: purchased DiscoveRx KINOMEscan
T4 sequence (P54764 20-986): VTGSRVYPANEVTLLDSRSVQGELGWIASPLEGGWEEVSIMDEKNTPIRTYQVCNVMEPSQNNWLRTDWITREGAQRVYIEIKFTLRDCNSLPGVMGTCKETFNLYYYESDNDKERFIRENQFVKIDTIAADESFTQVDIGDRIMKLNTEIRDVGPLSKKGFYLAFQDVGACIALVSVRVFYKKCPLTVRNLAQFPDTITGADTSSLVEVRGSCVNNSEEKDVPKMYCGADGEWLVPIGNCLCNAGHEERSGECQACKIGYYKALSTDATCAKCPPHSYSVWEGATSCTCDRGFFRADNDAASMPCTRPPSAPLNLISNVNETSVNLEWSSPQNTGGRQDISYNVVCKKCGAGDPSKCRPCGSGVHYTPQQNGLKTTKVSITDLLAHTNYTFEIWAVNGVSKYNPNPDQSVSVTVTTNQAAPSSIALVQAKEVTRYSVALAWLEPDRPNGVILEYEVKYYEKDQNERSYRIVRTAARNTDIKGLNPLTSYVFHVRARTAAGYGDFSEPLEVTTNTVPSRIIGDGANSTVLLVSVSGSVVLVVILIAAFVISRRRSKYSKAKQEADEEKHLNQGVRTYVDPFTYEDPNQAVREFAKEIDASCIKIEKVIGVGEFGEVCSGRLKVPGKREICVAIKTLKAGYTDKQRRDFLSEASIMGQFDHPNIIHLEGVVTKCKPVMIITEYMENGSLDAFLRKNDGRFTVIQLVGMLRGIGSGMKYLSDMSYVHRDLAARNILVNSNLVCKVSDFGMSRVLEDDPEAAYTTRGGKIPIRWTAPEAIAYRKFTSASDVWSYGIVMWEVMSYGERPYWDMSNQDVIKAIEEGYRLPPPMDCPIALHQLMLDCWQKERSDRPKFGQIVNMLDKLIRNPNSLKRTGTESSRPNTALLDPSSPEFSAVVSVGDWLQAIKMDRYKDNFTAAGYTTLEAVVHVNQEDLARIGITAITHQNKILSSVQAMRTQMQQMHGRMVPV
Type of assay: binding. Conditions: 10 μM.

Assay [11] concerns the target KIT(V559D) (Homo sapiens, UniProt P10721, V559D). Conditions: 10 μM.
Assay [12] addresses T5, DDR2 (Homo sapiens, UniProt Q16832).
T5 sequence (Q16832 22-855): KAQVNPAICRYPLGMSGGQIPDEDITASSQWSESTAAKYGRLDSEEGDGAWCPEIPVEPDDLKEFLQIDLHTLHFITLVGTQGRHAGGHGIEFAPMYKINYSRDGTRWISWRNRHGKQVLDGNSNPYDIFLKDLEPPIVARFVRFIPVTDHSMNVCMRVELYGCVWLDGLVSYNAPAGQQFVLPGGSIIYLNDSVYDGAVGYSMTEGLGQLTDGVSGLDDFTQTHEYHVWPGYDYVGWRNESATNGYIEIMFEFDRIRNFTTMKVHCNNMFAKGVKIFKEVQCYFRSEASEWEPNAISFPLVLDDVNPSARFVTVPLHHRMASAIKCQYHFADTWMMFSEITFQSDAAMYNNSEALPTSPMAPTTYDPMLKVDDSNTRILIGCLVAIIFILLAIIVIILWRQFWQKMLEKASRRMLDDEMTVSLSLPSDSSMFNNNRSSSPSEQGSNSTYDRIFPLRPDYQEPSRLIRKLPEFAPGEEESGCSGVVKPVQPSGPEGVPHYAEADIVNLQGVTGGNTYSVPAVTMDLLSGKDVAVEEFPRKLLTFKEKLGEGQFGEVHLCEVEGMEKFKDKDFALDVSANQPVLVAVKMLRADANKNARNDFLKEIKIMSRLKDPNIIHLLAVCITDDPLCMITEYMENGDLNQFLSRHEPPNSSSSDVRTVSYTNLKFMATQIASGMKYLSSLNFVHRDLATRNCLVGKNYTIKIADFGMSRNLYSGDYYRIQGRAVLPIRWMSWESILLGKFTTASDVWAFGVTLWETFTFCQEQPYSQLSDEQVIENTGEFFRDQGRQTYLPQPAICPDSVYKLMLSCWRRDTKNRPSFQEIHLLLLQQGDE
Conditions: 10 μM.

Assay [13] has as its target FLT4 (Homo sapiens, UniProt P35916). Conditions: 10 μM.
For assay [14], the target named is LYN (Homo sapiens, UniProt P07948). The settings on record: 10 μM.
The target in assay [15] is T6, FER (Homo sapiens, UniProt P16591).
T6 construct: purchased DiscoveRx KINOMEscan
T6 sequence (P16591 whole entry): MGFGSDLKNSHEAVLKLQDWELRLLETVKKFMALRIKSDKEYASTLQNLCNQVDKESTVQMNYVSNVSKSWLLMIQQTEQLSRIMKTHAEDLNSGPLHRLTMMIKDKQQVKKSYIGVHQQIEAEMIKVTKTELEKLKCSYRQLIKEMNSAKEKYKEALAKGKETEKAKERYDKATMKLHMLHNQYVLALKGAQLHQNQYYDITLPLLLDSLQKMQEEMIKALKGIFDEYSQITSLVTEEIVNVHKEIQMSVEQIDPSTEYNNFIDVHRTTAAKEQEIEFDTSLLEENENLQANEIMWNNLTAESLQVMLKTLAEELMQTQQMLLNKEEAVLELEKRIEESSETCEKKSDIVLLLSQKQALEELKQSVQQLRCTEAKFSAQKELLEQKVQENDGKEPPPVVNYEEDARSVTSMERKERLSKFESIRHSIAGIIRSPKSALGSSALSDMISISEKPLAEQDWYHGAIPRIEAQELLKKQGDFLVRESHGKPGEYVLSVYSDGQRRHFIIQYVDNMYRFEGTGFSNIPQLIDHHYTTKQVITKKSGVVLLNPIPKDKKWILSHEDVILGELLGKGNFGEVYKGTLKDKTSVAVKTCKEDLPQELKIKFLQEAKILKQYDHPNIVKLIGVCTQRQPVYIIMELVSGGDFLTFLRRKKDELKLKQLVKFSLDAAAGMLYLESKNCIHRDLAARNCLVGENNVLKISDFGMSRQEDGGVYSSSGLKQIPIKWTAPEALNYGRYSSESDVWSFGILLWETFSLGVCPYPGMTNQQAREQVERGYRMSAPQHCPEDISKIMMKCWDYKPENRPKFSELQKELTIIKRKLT
In kind it is binding. Conditions: for Percent control: 10 μM.

Assay [16] deals with FRK (Homo sapiens, UniProt P42685). Conditions: 10 μM.
Assay [17] deals with T7, DDR1 (Homo sapiens, UniProt Q08345).
T7 construct: purchased DiscoveRx KINOMEscan
Type of assay: binding. Conditions: for Percent control: 10 μM.

Chain of KIT(V559D) (P10721 26-976 V559D): as the sequence (P10721 26-976) above, with V534D counted along it

Regarding `C#Cc1cccc(Nc2ncnc3cc(OCCOC)c(OCCOC)cc23)c1` [Erlotinib], in assay [1], the Percent control turned out to be 7.6%. Besides, the remaining activity at 10 µM was found to be 6.6% in assay [2] and 100% in assay [4]. Further, in assay [3], the remaining binding at 10 µM was 22.5%.

Take `Cc1ccc(NC(=O)c2ccc(CN3CCN(C)CC3)cc2)cc1Nc1nccc(-c2cccnc2)[n+]1[Pt-2]1([Cl])[NH2+]C2CCCCC2[NH2+]1` (stereo not shown) [1b, oxaliplatin-imatinib]: the Percent control in [5] was 100%; in assay [6], 100%; in [7], 82%; in assay [1], 74%; in assay [8], 0.2%; in [9], 5%. The Percent control stood at 82% in assay [3] (ERBB2, 10 μM); 88% in [10]; 0% in [11]; 10% in assay [12]; 99% in assay [13]; 67% in [14]. Besides, the Percent control in assay [15] is 89%; in assay [16], 58%.

`COc1cc2c(Nc3ccc(Br)cc3F)ncnc2cc1OCC1CCN(C)CC1` [Vandetanib, reference compound] showed a Percent control in assay [1] of 15.3%. For the same molecule, the remaining activity at 10 µM in assay [2] is 2.3%; in assay [4], 4.2%. The remaining binding at 10 µM in assay [3] (ERBB2, 10 μM) stood at 20.6%; in assay [15] (read-out: Percent control), 100%; in assay [17] (read-out: Percent control) it was 0.1%.

With `COc1cc2c(Nc3ccc(Br)cc3F)[n+]([Pt-2]3([Cl])[NH2+]C4CCCCC4[NH2+]3)cnc2cc1OCC1CCN(C)CC1` (stereo not shown) [3b, oxaliplatin-vandetanib], the Percent control in assay [6] is given as 41%; in assay [8], 1.1%; in [9], 2.7%; in assay [11], 0.5%; in [12], 0.21%; in assay [13], 14%. Besides, the Percent control was 21% in [14], 90% in assay [15], 0.3% in assay [17] and 56% in assay [16].

Consider `C#Cc1cccc(Nc2c3cc(OCCOC)c(OCCOC)cc3nc[n+]2[Pt@SP2-2]([NH3+])([NH3+])[Cl])c1` [2a, cisplatin-erlotinib], for which the Percent control in assay [5] is reported as 100%; in assay [6] it was 100%; in assay [7], 64%; in assay [1], 79%; in assay [8], 86%; in assay [9], 56%. Further, the Percent control in assay [3] (ERBB2, 10 μM) is 21%; in assay [10] it was 79%; in assay [11] it was 88%; in assay [12] it was 100%; in [13] it was 90%; in assay [14] it was 69%. The Percent control in [15] was found to be 95%; in assay [17], 74%; in assay [16] it was 75%.

For the molecule `Cc1ccc(NC(=O)c2ccc(CN3CCN(C)CC3)cc2)cc1Nc1nccc(-c2cccnc2)n1` [Imatinib, reference compound], the Percent control is given as 100% in assay [5]; 100% in assay [7]; 38.7% in assay [1]; 100% in assay [3] (ERBB2, 10 μM); 100% in assay [10]; 0.1% in assay [12]. The Percent control was determined as 100% in assay [13], 74% in assay [14], 100% in assay [15] and 13.0% in assay [16]. Also, the remaining activity at 10 µM in [2] and in assay [4] was 100% in each case.
